Test results published in ChEMBL document CHEMBL6177934, “Chemical synthetic approaches to mimic the TRAIL: promising cancer therapeutics” (RSC Med Chem, 2024).
Starred links: 1 amine or outer side, 2 acyl side, 3 side chain; linkers in the order of their positions; H or OH if unused. Positions of bridges follow the written chain, without caps; N, C: chain ends. Residues, ends and D or L forms follow the SMILES beside them. Chains are numbered I, II in the order given. *: point of attachment. X1 = NC12CC3(C(=O)NCCCCCC(=O)[*:1])CC(C(=O)NCCCCCC(=O)[*:2])(C1)CC(C(=O)NCCCCCC(=O)[*:3])(C2)C3; X2 = O=C(CCC(=O)[*:1])NCCCC12CC3CC(CCCNC(=O)CCC(=O)[*:2])(C1)CC(CCCNC(=O)CCC(=O)[*:3])(C3)C2; Diglycolyl = O=C(COCC(=O)[*:2])[*:1]; X3 = CC(C)C[C@@H](C)N*

The compounds below were run against Tumor necrosis factor receptor superfamily member 10B (Homo sapiens, UniProt O14763) (assay: Binding affinity to human recombinant DR5 assessed as dissociation constant by SPR analysis).
Chain of Tumor necrosis factor receptor superfamily member 10B (O14763 whole entry): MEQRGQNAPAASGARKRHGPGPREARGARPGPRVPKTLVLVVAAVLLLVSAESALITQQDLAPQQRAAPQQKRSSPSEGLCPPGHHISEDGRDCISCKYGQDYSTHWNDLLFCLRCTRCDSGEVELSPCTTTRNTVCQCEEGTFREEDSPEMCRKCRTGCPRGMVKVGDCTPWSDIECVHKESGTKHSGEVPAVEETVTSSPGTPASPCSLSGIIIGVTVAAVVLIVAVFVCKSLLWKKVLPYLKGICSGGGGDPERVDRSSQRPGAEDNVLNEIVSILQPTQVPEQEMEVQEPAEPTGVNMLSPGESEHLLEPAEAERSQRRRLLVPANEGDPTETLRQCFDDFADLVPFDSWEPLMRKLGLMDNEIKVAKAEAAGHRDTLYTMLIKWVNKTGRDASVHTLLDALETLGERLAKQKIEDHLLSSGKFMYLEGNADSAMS

Compound	Kd
CC[C@H](C)[C@@H]1NC(=O)[C@H](CCCCNC(=O)COCC(=O)NCCCC[C@@H]2NC(=O)[C@H](CC(N)=O)NC(=O)[C@H](CC(=O)O)NC(=O)[C@H](CC(C)C)NC(=O)[C@@H](NC(=O)[C@H](CC(=O)O)NC(=O)[C@H](Cc3c[nH]c4ccccc34)NC(C)=O)CSSC[C@@H](C(=O)N[C@H](C(=O)N[C@@H](CCCCN)C(=O)N[C@@H](CC(C)C)C(N)=O)C(C)C)NC(=O)[C@H](CCC(N)=O)NC(=O)[C@H](CCCNC(=N)N)NC(=O)[C@H](CCCNC(=N)N)NC(=O)CNC(=O)[C@H]([C@@H](C)CC)NC2=O)NC(=O)[C@H](CC(N)=O)NC(=O)[C@H](CC(=O)O)NC(=O)[C@H](CC(C)C)NC(=O)[C@@H](NC(=O)[C@H](CC(=O)O)NC(=O)[C@H](Cc2c[nH]c3ccccc23)NC(C)=O)CSSC[C@@H](C(=O)N[C@H](C(=O)N[C@@H](CCCCN)C(=O)N[C@@H](CC(C)C)C(N)=O)C(C)C)NC(=O)[C@H](CCC(N)=O)NC(=O)[C@H](CCCNC(=N)N)NC(=O)[C@H](CCCNC(=N)N)NC(=O)CNC1=O (I: Ac-WDCLDNKIGRRQCVKL-NH2 / II: Ac-WDCLDNKIGRRQCVKL-NH2; disulfide I:3-I:13, II:3-II:13; linker I:7-II:7 via Diglycolyl)	2.29 nM
CC[C@H](C)[C@@H]1NC(=O)[C@H](CCCNC(=N)N)NC(=O)[C@H](CC(N)=O)NC(=O)[C@H](CC(=O)O)NC(=O)[C@H](CC(C)C)NC(=O)[C@@H](NC(=O)[C@H](CC(=O)O)NC(=O)[C@H](Cc2c[nH]c3ccccc23)NC(C)=O)CSSC[C@@H](C(=O)N[C@H](C(=O)N[C@@H](CCCCN)C(=O)N[C@@H](CC(C)C)C(N)=O)C(C)C)NC(=O)[C@H](CCC(N)=O)NC(=O)[C@H](CCCNC(=N)N)NC(=O)[C@H](CCCCNC(=O)COCC(=O)NCCCC[C@@H]2NC(=O)CNC(=O)[C@H]([C@@H](C)CC)NC(=O)[C@H](CCCNC(=N)N)NC(=O)[C@H](CC(N)=O)NC(=O)[C@H](CC(=O)O)NC(=O)[C@H](CC(C)C)NC(=O)[C@@H](NC(=O)[C@H](CC(=O)O)NC(=O)[C@H](Cc3c[nH]c4ccccc34)NC(C)=O)CSSC[C@@H](C(=O)N[C@H](C(=O)N[C@@H](CCCCN)C(=O)N[C@@H](CC(C)C)C(N)=O)C(C)C)NC(=O)[C@H](CCC(N)=O)NC(=O)[C@H](CCCNC(=N)N)NC2=O)NC(=O)CNC1=O (I: Ac-WDCLDNRIGKRQCVKL-NH2 / II: Ac-WDCLDNRIGKRQCVKL-NH2; disulfide I:3-I:13, II:3-II:13; linker I:10-II:10 via Diglycolyl)	0.114 nM
CC[C@H](C)[C@@H]1NC(=O)[C@H](CCCNC(=N)N)NC(=O)[C@H](CC(N)=O)NC(=O)[C@H](CC(=O)O)NC(=O)[C@H](CC(C)C)NC(=O)[C@@H](NC(=O)[C@H](CC(=O)O)NC(=O)[C@H](Cc2c[nH]c3ccccc23)NC(C)=O)CSSC[C@@H](C(=O)N[C@H](C(=O)N[C@@H](CCCCNC(=O)COCC(=O)NCCCC[C@H](NC(=O)[C@@H](NC(=O)[C@@H]2CSSC[C@H](NC(=O)[C@H](CC(=O)O)NC(=O)[C@H](Cc3c[nH]c4ccccc34)NC(C)=O)C(=O)N[C@@H](CC(C)C)C(=O)N[C@@H](CC(=O)O)C(=O)N[C@@H](CC(N)=O)C(=O)N[C@@H](CCCNC(=N)N)C(=O)N[C@@H]([C@@H](C)CC)C(=O)NCC(=O)N[C@@H](CCCNC(=N)N)C(=O)N[C@@H](CCCNC(=N)N)C(=O)N[C@@H](CCC(N)=O)C(=O)N2)C(C)C)C(=O)N[C@@H](CC(C)C)C(N)=O)C(=O)N[C@@H](CC(C)C)C(N)=O)C(C)C)NC(=O)[C@H](CCC(N)=O)NC(=O)[C@H](CCCNC(=N)N)NC(=O)[C@H](CCCNC(=N)N)NC(=O)CNC1=O (I: Ac-WDCLDNRIGRRQCVKL-NH2 / II: Ac-WDCLDNRIGRRQCVKL-NH2; disulfide I:3-I:13, II:3-II:13; linker I:15-II:15 via Diglycolyl)	1.24 nM
I: Ac-WDCLDNKIGRRQCVKL-NH2 / II: Ac-WDCLDNKIGRRQCVKL-NH2 / III: Ac-WDCLDNKIGRRQCVKL-NH2 (disulfide I:3-I:13, II:3-II:13, III:3-III:13; linker I:7-II:7-III:7 via X2)	0.05 nM
I: Ac-WDCLDNRIGKRQCVKL-NH2 / II: Ac-WDCLDNRIGKRQCVKL-NH2 / III: Ac-WDCLDNRIGKRQCVK-X3 (disulfide I:3-I:13, II:3-II:13, III:3-III:13; linker I:10-II:10-III:10 via X2)	0.539 nM
I: Ac-WDCLDNRIGRRQCVKL-NH2 / II: Ac-WDCLDNRIGRRQCVKL-NH2 / III: Ac-WDCLDNRIGRRQCVKL-NH2 (disulfide I:3-I:13, II:3-II:13, III:3-III:13; linker I:15-II:15-III:15 via X1)	9.1 nM
I: Ac-WDCLDNRIGRRQCVKL-NH2 / II: Ac-WDCLDNRIGRRQCVKL-NH2 / III: Ac-WDCLDNRIGRRQCVKL-NH2 (disulfide I:3-I:13, II:3-II:13, III:3-III:13; linker I:15-II:15-III:15 via X2)	0.88 nM

Each compound was assayed on BJAB (assay: Antiproliferative activity against human BJAB cells assessed as reduction in cell viability incubated for 16 hrs by MTS assay).
Assay type: functional, cell-based

Compound	IC50
I: Ac-WDCLDNRIGRRQCVKL-NH2 / II: Ac-WDCLDNRIGRRQCVKL-NH2 / III: Ac-WDCLDNRIGRRQCVKL-NH2 (disulfide I:3-I:13, II:3-II:13, III:3-III:13; linker I:15-II:15-III:15 via X1)	31.2 nM
